Test results reported in patent US11434227B2, “Broad spectrum antibacterial activity of novel bisbenzimidazoles targeting topoisomerase IA and the synergistic composition of bisbenzimidazole with efflux pump inhibitors against pathogenic bacteria” (Jawaharlal Nehru University (JNU), priority 2016, dated 2022).
≈ marks a conversion by molar mass, not a printed value.

How the values were obtained:
[1] = test system: most of the pathogenic bacterial strains; experiment: MIC of HN12b in combination with efflux pump inhibitor; settings: combination with CCCP and PAβN
Protocol: Briefly, the broth microdilution plates were inoculated with each test organism to yield the appropriate density (10^5 CFU/ml) in 100 μl Mueller-Hinton broth (MHB) and incubated for 24 h at 37° C. in ambient air. One well with no antibiotic was used as a positive growth control on each plate. Plates were read for visual turbidity, and results were recorded after 24 h of incubation at 37° C. in ambient air by using a magnifying mirror reader, as turbidity in wells indicated growth of the microorganism. The MIC was determined as the well in the microtiter plate with the lowest drug concentration at which there was no visible growth. […] MICAB was defined as the MIC of drug A in the presence of drug B; MICBA was defined as the MIC of drug B in the presence of drug A.

[2] = test system: Escherichia coli (ATCC 25922); experiment: Susceptibility (MIC, PAE, MBC), broth microdilution; settings: Escherichia coli
Protocol: (§1) MICs were determined by the broth microdilution method according to CLSI methods (Clinical and Laboratory Standards Institute, 2005). Inoculants were incubated at 37° C. on cation adjusted Mueller Hinton (MH) Broth for 18 to 24 h. Compound were dissolved in media to 10 doubling dilutions from 128 to 0.125 μg/mL. All the bacterial strains were grown in 96 well plate with low evaporation lid (Falcon, Becton Dickinson) in presence of derivatives of benzimidazoles at 0.125, 0.25, 0.5, 1, 2, 4, 8, 16, 32, 64, 128, 256 μg/mL concentrations. […] Plates were read by Tecan Micro-plate Reader at 600 nm.

E. coli K12 mutant ΔemrA = experiment: Susceptibility of E. coli K12 and mutants (MIC90); settings: Escherichia coli
Protocol: as §1

E. coli 118^R = experiment: Susceptibility (MIC, PAE, MBC), broth microdilution; settings: Escherichia coli
E. coli ATCC 25922 = experiment: Mouse systemic infection (septicemia) model; format: in vivo, Balb/c mice
Protocol: Female Balb/c mice weighing 20-25 g of 6-8 weeks old were injected with E. coli ATCC 25922 (0.5×10^8 CFU in 0.1 mL saline) intraperitoneally. […] Each treatment or control group had 10 mice. Mortality was recorded daily for 7 days post infection.

P. aeruginosa (Ps 366) = experiment: HN12b in combination with efflux pump inhibitors (CB method, FICI)
Protocol: (§2) 96-well microtiter plates containing MIC25 concentrations of the Efflux pump inhibitor (CCCP, PAβN) and HN12b antimicrobial drugs alone and in CB combination were used. The MICs of the individual drugs HN12b, PAβN and CCCP (0.25 to 128 μg/ml) and of the combinations were determined using the broth microdilution technique as recommended by the CLSI. Briefly, the broth microdilution plates were inoculated with each test organism to yield the appropriate density (10^5 CFU/ml) in 100 μl Mueller-Hinton broth (MHB) and incubated for 24 h at 37° C. in ambient air. One well with no antibiotic was used as a positive growth control on each plate. Plates were read for visual turbidity, and results were recorded after 24 h of incubation at 37° C. in ambient air by using a magnifying mirror reader, as turbidity in wells indicated growth of the microorganism. The MIC was determined as the well in the microtiter plate with the lowest drug concentration at which there was no visible growth. […] MICAB was defined as the MIC of drug A in the presence of drug B; MICBA was defined as the MIC of drug B in the presence of drug A.
(§3) The fractional inhibitory concentration index (FICI) was calculated for each antibiotic in each combination by using the following formula: FICA+FICB=FICI, where FICA equals the MIC of drug A in combination divided by the MIC of drug A alone and FICB equals the MIC of drug B in combination divided by the MIC of drug B alone. The FICIs were interpreted as follows: FICI of ≤0.5 will correspond to synergy; FICI of >0.5 to ≤1 will correspond to additivity; FICI of >1 to ≤4 will correspond to no interaction (indifference), and FICI of >4 will correspond antagonism.

[3] = test system: Shigella flexineri (MTCC1457); experiment: Susceptibility (MIC50/MIC90), broth microdilution; format: cell-based
[4] = test system: Pseudomonas aeruginosa (MTCC1688); experiment: Susceptibility (MIC50/MIC90), broth microdilution
Protocol: as §1

Staphylococcus sp. (982) = experiment: Susceptibility (MIC50/MIC90), broth microdilution
Protocol: as §1

Enterococcus sp. (2105) = experiment: HN12b in combination with efflux pump inhibitors (CB method, FICI)
Protocol: as §2, §3

E. coli K12 mutant ΔtolC = experiment: Susceptibility of E. coli K12 and mutants (MIC90); settings: Escherichia coli
Protocol: as §1

Enterococcus sp.(1150) = experiment: Susceptibility (MIC50/MIC90), broth microdilution
Protocol: as §1

E. coli 59^R = experiment: Susceptibility (MIC, PAE, MBC), broth microdilution; settings: Escherichia coli
Protocol: as §1

[5] = test system: Acinetobacter baumannii (AB312); experiment: Susceptibility (MIC50/MIC90), broth microdilution
Protocol: as §1

[6] = test system: Staphylococcus sp. (1016); experiment: Susceptibility (MIC50/MIC90), broth microdilution; settings: Staphylococcus
Protocol: as §1

Enterococcus sp. (1367) = experiment: Susceptibility (MIC50/MIC90), broth microdilution
Protocol: as §1

Staphylococcus sp. (976) = experiment: Susceptibility (MIC50/MIC90), broth microdilution
Protocol: as §1

[7] = ATCC25922, Escherichia coli (ATCC 25922), Table 2
[8] = P. aeruginosa (Ps 366), HN12b + CCCP
[9] = Enterococcus sp. (2105), HN12b + CCCP

Compound: CCCN1CCN(c2nc3ccc(-c4nc5ccccc5[nH]4)cc3[nH]2)CC1 [HN12b, 2′-(4-propylpiperazine-1-yl)-1H, 3′H-2,5′-bibenzimidazole]
- reduction in MIC in combination with efflux pump inhibitor [1]: four to eight fold reduction in MIC
- MBC ([2]; ATCC25922): 4 µg/mL (≈ 11.1 µM)
- MIC50 ([2]; ATCC25922, ATCC 25922): 0.2 µg/mL (≈ 0.555 µM)
- MIC90 ([2]; ATCC25922, ATCC 25922): 3.3 µg/mL (≈ 9.15 µM)
- MIC50 ([2]; ATCC25922, ATCC25922, Table 7): 0.2 ± 0.024 µg/mL (≈ 0.555 µM)
- MIC50 [2, 7]: 8 µg/mL (≈ 22.2 µM)
- MIC90 [2, 7]: 26.6 µg/mL (≈ 73.8 µM)
- MIC90 (E. coli K12 mutant ΔemrA): 5.8 µg/mL (≈ 16.1 µM)
- MBC (E. coli 118^R): 2 µg/mL (≈ 5.55 µM)
- MIC50 (E. coli 118^R): 1 µg/mL (≈ 2.77 µM)
- MIC90 (E. coli 118^R): 1.7 µg/mL (≈ 4.72 µM)
- ED50 (E. coli ATCC 25922; Escherichia coli, iv, 168 h, Septicemia, ATCC25922, single i.v. bolus, survival over 7 days): 5 mg/kg
- in vivo efficacy (E. coli ATCC 25922; Septicaemia model, E. coli ATCC 25922): good in vivo efficacy
- FICI (P. aeruginosa (Ps 366); [8]): 0.6
- Interpretation (P. aeruginosa (Ps 366); [8]): Synergy (FICI of ≤0.5 will correspond to synergy)
- FICI (P. aeruginosa (Ps 366); P. aeruginosa (Ps 366), HN12b + PAβN): 0.9
- MIC90 (P. aeruginosa (Ps 366); Pseudomonas aeruginosa): > 128 µg/mL
- MIC50 [3]: 1.22 µg/mL (≈ 3.38 µM)
- MIC90 [3]: 1.22 µg/mL (≈ 3.38 µM)
- MIC50 [4]: > 128 µg/mL
- MIC90 [4]: 128 µg/mL (≈ 355 µM)
- MIC50 (Staphylococcus sp. (982)): 0.44 µg/mL (≈ 1.22 µM)
- MIC90 (Staphylococcus sp. (982)): 7.44 µg/mL (≈ 20.6 µM)
- MIC90 (Enterococcus sp. (2105); Enterococcus): 128 µg/mL
- FICI (Enterococcus sp. (2105); [9]): 0.5
- Interpretation (Enterococcus sp. (2105); [9]): Synergy (FICI of ≤0.5 will correspond to synergy)
- FICI (Enterococcus sp. (2105); Enterococcus sp. (2105), HN12b + PAβN): 1
- MIC90 (E. coli K12 mutant ΔtolC): 0.5 µg/mL (≈ 1.39 µM)
- MIC50 (Enterococcus sp.(1150)): 0.25 µg/mL (≈ 0.694 µM)
- MIC90 (Enterococcus sp.(1150)): 13.2 µg/mL (≈ 36.8 µM)
- MBC (E. coli 59^R): 4 µg/mL (≈ 11.1 µM)
- MIC50 (E. coli 59^R): 2 µg/mL (≈ 5.55 µM)
- MIC90 (E. coli 59^R): 3.4 µg/mL (≈ 9.43 µM)
- MIC50 [5]: 3.8 µg/mL (≈ 10.5 µM)
- MIC90 [5]: 3.8 µg/mL (≈ 10.5 µM)
- MIC50 [6]: 0.57 µg/mL (≈ 1.58 µM)
- MIC90 [6]: 4.57 µg/mL (≈ 12.7 µM)
- MIC50 (Enterococcus sp. (1367)): < 0.25 µg/mL
- MIC90 (Enterococcus sp. (1367)): 11.4 µg/mL (≈ 31.5 µM)
- MIC50 (Staphylococcus sp. (976)): 0.31 µg/mL (≈ 0.86 µM)
- MIC90 (Staphylococcus sp. (976)): 15.3 µg/mL (≈ 42.5 µM)
